{
  "source": "patent US3934024A",
  "about": "“Method of producing analgesia and compositions useful therein” (Sharps Associates, priority 1975, dated 1976)",
  "key": {"rat": {"test_system": "rat", "test": "rat tail flick test for analgesic activity", "assay_type": "in vivo", "details": "oral, 95% C.L. = 0.9 - 4.8", "text": "In the rat tail flick test for analgesic activity [D'Amour and Smith, J. Pharmacol. Exper. Therap."}, "mice": {"test_system": "mice", "test": "Acetic acid writhing test in mice (oral)", "assay_type": "in vivo", "details": "for Percent inhibition: acetic acid writhing, writhes counted for 20 minutes beginning 5 minutes after acid injection", "protocol": "The analgesic activity of the compound was evaluated in an acetic acid writhing test. The acetic acid writhing test used was modified from that described by Whittle, Brit J. Pharmacol., 22, 296 (1964). The number of writhes were counted for a 20 minute period beginning 5 minutes after the injection of the acid. Analgetic potency was calculated from the difference between the test groups and their controls.\nAcetic acid writhing test in mice (oral)"}},
  "data": [
    {"compound": "CCCCCC(C)C(C)c1cc(O)c2c(c1)OC(C)(C)C1=C2CCCS1", "note": "(stereo not drawn) [Compound I, 1,2-dihydro-5,5-dimethyl-10-hydroxy-8-(3-methyl-2-octyl)-3H,5H-thiopyrano[2,3-c][1]benzopyran]", "values": [
      {"measurement": "ED50", "setting": "rat", "value": 2.7, "unit": "mg/kg"},
      {"measurement": "ED50", "setting": "mice; Mus musculus, oral, 95% C.L. = 9.2 - 12.4", "value": 10.8, "unit": "mg/kg"},
      {"measurement": "Percent inhibition", "setting": "mice; 5 mg/kg p.o.", "value": 20.7, "unit": "%"},
      {"measurement": "Percent inhibition", "setting": "mice; 10 mg/kg p.o.", "value": 48.9, "unit": "%"},
      {"measurement": "Percent inhibition", "setting": "mice; 20 mg/kg p.o.", "value": 74.0, "unit": "%"},
      {"measurement": "Percent inhibition", "setting": "mice; 40 mg/kg p.o.", "value": 95.6, "unit": "%"}
    ]}
  ]
}
